Source: publication PMC8155022 (Scientific Reports, 2021)
pIC50: −log10 of the molar value. Read-outs that look alike come from different tables or passages of the source.

Experiments:
PPARα = target: T1, PPARα (Homo sapiens, UniProt Q07869); assay: nuclear receptor cellular GAL4 reporter assay; type: cell-based; settings: agonist and antagonist mode; read-out: potency in agonist and antagonist mode
T1 construct: expressed in transfected cells

CAR = target: T2, CAR (Homo sapiens, UniProt Q14994); assay: nuclear receptor cellular GAL4 reporter assay; type: cell-based; settings: agonist and antagonist mode; read-out: potency in agonist and antagonist mode
T2 construct: expressed in transfected cells

ERα = target: T3, ERα (Homo sapiens, UniProt P03372); assay: nuclear receptor cellular GAL4 reporter assay; type: cell-based; settings: agonist and antagonist mode; read-out: potency in agonist and antagonist mode
T3 construct: expressed in transfected cells

ERβ = target: T4, ERβ (Homo sapiens, UniProt Q92731); assay: nuclear receptor cellular GAL4 reporter assay; type: cell-based; settings: agonist and antagonist mode; read-out: potency in agonist and antagonist mode
T4 construct: expressed in transfected cells

ERRγ = ERRγ (Homo sapiens, UniProt P62508); assay: biochemical TR-FRET assay; settings: agonist and antagonist mode; read-out: potency in agonist and antagonist mode
MR = target: T5, MR (Homo sapiens, UniProt P08235); assay: nuclear receptor cellular GAL4 reporter assay; type: cell-based; settings: agonist and antagonist mode; read-out: potency in agonist and antagonist mode
T5 construct: expressed in transfected cells

A2A (h) = target: T6, A2A (h) (Homo sapiens, UniProt P29274); assay: Cerep panel; type: binding
T6 construct: purchased Cerep (receptors, ion channels, transporters); Eurofins Panlabs (kinases)
Experimental: (§1) A panel of 52 different receptors, ion channels and transporters was tested by Cerep, Inc. (Redmond, WA).

NT1 (h) (NTS1) = target: T7, NT1 (h) (NTS1) (Homo sapiens, UniProt P30989); assay: Cerep panel; type: binding
T7 construct: purchased Cerep (receptors, ion channels, transporters); Eurofins Panlabs (kinases)
Experimental: as §1

kappa (KOP) = target: T8, kappa (KOP) (Rattus norvegicus, UniProt P34975); assay: Cerep panel; type: binding
T8 construct: purchased Cerep (receptors, ion channels, transporters); Eurofins Panlabs (kinases)
Experimental: as §1

5-HT1B = target: T9, 5-HT1B (Rattus norvegicus, UniProt P28564); assay: Cerep panel; type: binding
T9 construct: purchased Cerep (receptors, ion channels, transporters); Eurofins Panlabs (kinases)
Experimental: as §1

Na+ channel (site 2) = assay: Cerep panel; type: binding
Experimental: as §1

DA-T transporter (h) = target: T10, DA-T transporter (h) (Homo sapiens, UniProt Q01959); assay: Cerep panel; type: binding
T10 construct: purchased Cerep (receptors, ion channels, transporters); Eurofins Panlabs (kinases)
Experimental: (§2) 28 GPCRs were evaluated through cAMP or calcium FLIPR assays[67]. A panel of 52 different receptors, ion channels and transporters was tested by Cerep, Inc. (Redmond, WA).

5HT1A = 5HT1A (Homo sapiens, UniProt P08908); assay: GPCR panel, cAMP or calcium FLIPR assays; type: cell-based
Experimental: as §2

5HT6 = 5HT6 (Homo sapiens, UniProt P50406); assay: GPCR panel, cAMP or calcium FLIPR assays; type: cell-based
Experimental: (§3) 28 GPCRs were evaluated through cAMP or calcium FLIPR assays[67].

ADRA2C = ADRA2C (Homo sapiens, UniProt P18825); assay: GPCR panel, cAMP or calcium FLIPR assays; type: cell-based
Experimental: as §3

M1 = M1 (Homo sapiens, UniProt P11229); assay: GPCR panel, cAMP or calcium FLIPR assays; type: cell-based
Experimental: as §3

Blk(h) = target: T11, Blk(h) (Homo sapiens, UniProt P51451); assay: Kinase panel; type: biochemical
T11 construct: purchased Cerep (receptors, ion channels, transporters); Eurofins Panlabs (kinases)
Experimental: (§4) Kinase selectivity was conducted by Eurofins Panlabs Inc (St Charles, MO).

EGFR(h) = target: T12, EGFR(h) (Homo sapiens, UniProt P00533); assay: Kinase panel; type: biochemical
T12 construct: purchased Cerep (receptors, ion channels, transporters); Eurofins Panlabs (kinases)
Experimental: as §4

EphA2(h) = target: T13, EphA2(h) (Homo sapiens, UniProt P29317); assay: Kinase panel; type: biochemical
T13 construct: purchased Cerep (receptors, ion channels, transporters); Eurofins Panlabs (kinases)
Experimental: as §4

IKKβ(h) = target: T14, IKKβ(h) (Homo sapiens, UniProt O14920); assay: Kinase panel; type: biochemical
T14 construct: purchased Cerep (receptors, ion channels, transporters); Eurofins Panlabs (kinases)
Experimental: as §4

JAK2(h) = target: T15, JAK2(h) (Homo sapiens, UniProt O60674); assay: Kinase panel; type: biochemical
T15 construct: purchased Cerep (receptors, ion channels, transporters); Eurofins Panlabs (kinases)
Experimental: as §4

MAPK2(h) = target: T16, MAPK2(h) (Homo sapiens, UniProt P28482); assay: Kinase panel; type: biochemical
T16 construct: purchased Cerep (receptors, ion channels, transporters); Eurofins Panlabs (kinases)
Experimental: as §4

PKCβI(h) = target: T17, PKCβI(h) (Homo sapiens, UniProt P05771); assay: Kinase panel; type: biochemical
T17 construct: purchased Cerep (receptors, ion channels, transporters); Eurofins Panlabs (kinases)
Experimental: as §4

Rsk3(h) = target: T18, Rsk3(h) (Homo sapiens, UniProt Q15349); assay: Kinase panel; type: biochemical
T18 construct: purchased Cerep (receptors, ion channels, transporters); Eurofins Panlabs (kinases)
Experimental: as §4

SAPK3(h) = target: T19, SAPK3(h) (Homo sapiens, UniProt P53778); assay: Kinase panel; type: biochemical
T19 construct: purchased Cerep (receptors, ion channels, transporters); Eurofins Panlabs (kinases)
Experimental: as §4

ZIPK(h) = target: T20, ZIPK(h) (Homo sapiens, UniProt O43293); assay: Kinase panel; type: biochemical
T20 construct: purchased Cerep (receptors, ion channels, transporters); Eurofins Panlabs (kinases)
Experimental: as §4

A3 = target: T21, A3 (Homo sapiens, UniProt P0DMS8); assay: follow-up functional study; type: cell-based; settings: read-out: IC50 in follow-up functional studies
T21 sequence (P0DMS8 1-318): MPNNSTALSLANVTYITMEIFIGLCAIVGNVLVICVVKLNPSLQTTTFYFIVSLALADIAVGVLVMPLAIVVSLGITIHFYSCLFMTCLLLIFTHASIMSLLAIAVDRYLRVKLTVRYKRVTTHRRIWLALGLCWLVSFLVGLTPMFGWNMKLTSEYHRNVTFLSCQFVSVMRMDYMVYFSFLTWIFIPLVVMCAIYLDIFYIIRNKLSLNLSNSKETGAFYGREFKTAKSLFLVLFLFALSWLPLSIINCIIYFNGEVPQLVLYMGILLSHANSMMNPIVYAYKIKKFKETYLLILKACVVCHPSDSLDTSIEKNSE

TK6 = assay: mammalian cell (TK6) micronucleus test; type: cell-based; settings: in vitro
plasma protein binding = type: in vitro ADME; settings: human
[1] = tested on: human CD4+ T cells under Th17 differentiation; assay: in vitro human Th17 differentiation, cytokine production
Experimental: On day 4, supernatants were analyzed for IL-17A, IL-17F, IL-22 and IFNγ production.
Total CD4^+ T cells were isolated from peripheral blood mononuclear cells (PBMCs) of healthy donors using a CD4^+ T cell Isolation Kit II (Miltenyl Biotec, Auburn, CA), following the manufacturer’s instructions.
In vitro human Th17 and Th1 differentiation
Total CD4+ T cells were isolated from the peripheral blood mononuclear cells (PBMCs) of healthy donors
using a CD4+ T cell Isolation Kit II (Miltenyl Biotec, Auburn, CA), following the manufacturer’s
instructions. Isolated T cells were resuspended in culture medium and added to a 96-well plate at 1×105
beads (prepared using human T cell activation/expansion kit, Miltenyi Biotec) at final concentration of
3x10^6/mL, and cocktail for either Th17 differentiation (10 µg/mL anti-IL-4, 10 µg/mL anti-IFN, 10 ng/mL
IL-1β, 10 ng/mL IL-23, 50 ng/mL IL-6, 3 ng/mL TGFβ and 20 U/mL IL-2), or for Th1 differentiation (10
µg/mL anti-IL-4, 10 ng/mL IL-12, and 20 U/mL IL-2). Cells were cultured at 37°C and 5% CO2 for 3 days.
Supernatants were assayed for accumulated cytokines using MSD multi-spot assay (Meso Scale
Discovery, Rockville, MD) or R&D ELISA kit.

T18 sequence (Q15349 whole entry): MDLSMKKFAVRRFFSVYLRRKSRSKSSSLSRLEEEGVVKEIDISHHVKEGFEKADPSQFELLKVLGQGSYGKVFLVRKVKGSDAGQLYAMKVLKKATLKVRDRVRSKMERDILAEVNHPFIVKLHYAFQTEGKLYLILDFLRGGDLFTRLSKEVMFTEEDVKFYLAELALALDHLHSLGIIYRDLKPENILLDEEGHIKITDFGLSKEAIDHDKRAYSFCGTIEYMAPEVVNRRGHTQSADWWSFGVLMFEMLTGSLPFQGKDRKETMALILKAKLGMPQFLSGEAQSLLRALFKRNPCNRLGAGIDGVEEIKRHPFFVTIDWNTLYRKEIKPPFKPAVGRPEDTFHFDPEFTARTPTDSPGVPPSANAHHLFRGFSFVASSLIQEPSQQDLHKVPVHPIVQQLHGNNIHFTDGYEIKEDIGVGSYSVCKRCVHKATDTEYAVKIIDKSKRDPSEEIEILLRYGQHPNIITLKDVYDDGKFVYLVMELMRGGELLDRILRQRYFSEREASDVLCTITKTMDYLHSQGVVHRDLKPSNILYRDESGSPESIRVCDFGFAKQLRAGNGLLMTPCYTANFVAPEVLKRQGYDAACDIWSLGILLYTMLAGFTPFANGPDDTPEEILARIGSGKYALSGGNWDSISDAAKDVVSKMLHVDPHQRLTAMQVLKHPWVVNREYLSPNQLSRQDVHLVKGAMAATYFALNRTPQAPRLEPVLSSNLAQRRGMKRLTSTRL
Sequence of ADRA2C (P18825 whole entry, species assumed): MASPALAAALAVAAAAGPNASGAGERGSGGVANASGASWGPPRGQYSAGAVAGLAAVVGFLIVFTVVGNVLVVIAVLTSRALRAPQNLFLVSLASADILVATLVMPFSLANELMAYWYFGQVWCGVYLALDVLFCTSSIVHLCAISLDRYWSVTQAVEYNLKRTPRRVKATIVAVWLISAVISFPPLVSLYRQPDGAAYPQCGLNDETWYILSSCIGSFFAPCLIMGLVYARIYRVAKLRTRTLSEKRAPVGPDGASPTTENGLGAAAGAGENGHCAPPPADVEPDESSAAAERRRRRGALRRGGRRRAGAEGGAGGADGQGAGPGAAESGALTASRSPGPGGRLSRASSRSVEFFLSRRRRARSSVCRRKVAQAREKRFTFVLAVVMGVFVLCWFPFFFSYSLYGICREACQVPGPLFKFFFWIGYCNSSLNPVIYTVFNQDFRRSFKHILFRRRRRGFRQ
T12 sequence (P00533 25-1210): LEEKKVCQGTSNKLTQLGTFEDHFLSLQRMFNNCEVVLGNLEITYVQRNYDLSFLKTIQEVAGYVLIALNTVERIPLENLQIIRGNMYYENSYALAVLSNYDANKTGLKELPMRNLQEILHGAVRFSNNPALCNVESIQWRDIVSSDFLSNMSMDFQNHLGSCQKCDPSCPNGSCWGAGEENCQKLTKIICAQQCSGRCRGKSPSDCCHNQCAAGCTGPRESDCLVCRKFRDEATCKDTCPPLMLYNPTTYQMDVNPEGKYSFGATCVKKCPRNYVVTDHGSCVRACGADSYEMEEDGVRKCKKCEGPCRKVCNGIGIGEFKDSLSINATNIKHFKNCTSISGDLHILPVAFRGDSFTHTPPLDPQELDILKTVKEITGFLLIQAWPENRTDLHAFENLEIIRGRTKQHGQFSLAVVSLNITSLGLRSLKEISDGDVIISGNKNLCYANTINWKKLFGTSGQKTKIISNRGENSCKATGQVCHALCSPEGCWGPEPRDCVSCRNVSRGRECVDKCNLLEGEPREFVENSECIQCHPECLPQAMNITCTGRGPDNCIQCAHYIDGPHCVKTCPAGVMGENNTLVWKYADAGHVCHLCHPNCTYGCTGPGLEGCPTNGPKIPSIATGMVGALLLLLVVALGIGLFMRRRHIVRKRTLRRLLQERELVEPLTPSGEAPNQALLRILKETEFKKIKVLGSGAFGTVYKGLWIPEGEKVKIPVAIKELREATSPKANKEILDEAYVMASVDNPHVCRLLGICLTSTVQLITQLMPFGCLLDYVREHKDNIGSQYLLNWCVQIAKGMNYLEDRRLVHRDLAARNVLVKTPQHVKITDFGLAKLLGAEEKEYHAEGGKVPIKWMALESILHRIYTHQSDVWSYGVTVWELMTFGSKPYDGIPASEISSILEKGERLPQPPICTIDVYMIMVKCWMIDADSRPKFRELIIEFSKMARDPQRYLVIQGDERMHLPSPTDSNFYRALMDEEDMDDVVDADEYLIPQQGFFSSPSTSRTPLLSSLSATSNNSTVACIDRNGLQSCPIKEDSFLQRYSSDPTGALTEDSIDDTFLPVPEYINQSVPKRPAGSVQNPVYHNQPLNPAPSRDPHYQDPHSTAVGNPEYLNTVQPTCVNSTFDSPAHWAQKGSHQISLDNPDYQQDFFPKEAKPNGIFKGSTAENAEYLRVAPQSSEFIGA
T13 sequence (P29317 24-976): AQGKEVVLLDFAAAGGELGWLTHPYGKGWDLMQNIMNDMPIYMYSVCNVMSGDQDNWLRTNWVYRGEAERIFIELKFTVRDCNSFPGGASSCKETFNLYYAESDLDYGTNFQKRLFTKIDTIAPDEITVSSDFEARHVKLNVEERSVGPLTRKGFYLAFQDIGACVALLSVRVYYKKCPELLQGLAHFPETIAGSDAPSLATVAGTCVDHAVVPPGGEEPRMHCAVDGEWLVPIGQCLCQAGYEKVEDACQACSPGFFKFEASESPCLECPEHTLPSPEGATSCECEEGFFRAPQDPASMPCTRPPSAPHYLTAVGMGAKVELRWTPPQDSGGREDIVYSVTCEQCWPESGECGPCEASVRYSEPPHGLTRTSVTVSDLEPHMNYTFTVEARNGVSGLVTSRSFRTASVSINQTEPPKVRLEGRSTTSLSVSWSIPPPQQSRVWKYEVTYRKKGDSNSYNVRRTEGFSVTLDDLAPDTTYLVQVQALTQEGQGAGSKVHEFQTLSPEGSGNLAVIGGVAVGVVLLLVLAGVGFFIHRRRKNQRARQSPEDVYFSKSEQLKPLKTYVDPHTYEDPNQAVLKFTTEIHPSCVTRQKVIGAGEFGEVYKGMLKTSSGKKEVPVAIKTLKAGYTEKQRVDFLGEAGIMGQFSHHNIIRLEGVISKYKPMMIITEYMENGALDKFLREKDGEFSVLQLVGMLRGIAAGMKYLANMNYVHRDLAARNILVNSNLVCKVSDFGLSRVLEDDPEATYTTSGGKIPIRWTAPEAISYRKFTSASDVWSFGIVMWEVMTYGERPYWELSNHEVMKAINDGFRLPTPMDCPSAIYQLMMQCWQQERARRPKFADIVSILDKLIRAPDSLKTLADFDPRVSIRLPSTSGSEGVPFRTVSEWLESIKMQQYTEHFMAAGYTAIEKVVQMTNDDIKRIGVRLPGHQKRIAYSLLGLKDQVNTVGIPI
T8 sequence (P34975 whole entry): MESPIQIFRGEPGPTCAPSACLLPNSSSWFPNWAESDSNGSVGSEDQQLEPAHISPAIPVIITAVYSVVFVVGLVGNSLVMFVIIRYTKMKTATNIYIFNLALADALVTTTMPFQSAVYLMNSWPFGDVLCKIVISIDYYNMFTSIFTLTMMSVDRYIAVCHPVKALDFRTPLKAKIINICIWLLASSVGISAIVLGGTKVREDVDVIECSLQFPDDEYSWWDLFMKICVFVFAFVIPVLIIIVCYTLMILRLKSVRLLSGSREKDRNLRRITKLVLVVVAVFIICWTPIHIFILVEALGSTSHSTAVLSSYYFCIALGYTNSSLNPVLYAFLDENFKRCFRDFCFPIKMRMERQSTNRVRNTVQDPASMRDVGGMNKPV
T10 sequence (Q01959 whole entry): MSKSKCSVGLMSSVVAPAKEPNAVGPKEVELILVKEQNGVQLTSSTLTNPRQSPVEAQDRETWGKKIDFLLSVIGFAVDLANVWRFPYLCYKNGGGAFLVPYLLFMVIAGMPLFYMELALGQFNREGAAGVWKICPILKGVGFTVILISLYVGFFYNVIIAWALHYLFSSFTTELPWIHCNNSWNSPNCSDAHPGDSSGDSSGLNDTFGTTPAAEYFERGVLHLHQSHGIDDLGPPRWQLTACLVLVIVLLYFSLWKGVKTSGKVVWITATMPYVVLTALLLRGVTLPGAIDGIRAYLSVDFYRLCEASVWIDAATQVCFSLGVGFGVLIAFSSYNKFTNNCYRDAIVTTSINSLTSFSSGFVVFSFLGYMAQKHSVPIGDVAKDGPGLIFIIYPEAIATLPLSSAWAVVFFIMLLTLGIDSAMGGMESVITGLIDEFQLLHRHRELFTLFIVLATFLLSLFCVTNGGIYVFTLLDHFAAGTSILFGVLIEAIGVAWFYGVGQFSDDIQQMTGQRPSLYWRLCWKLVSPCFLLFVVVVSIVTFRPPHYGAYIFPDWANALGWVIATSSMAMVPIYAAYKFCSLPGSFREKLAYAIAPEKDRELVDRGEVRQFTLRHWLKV
T17 sequence (P05771 whole entry): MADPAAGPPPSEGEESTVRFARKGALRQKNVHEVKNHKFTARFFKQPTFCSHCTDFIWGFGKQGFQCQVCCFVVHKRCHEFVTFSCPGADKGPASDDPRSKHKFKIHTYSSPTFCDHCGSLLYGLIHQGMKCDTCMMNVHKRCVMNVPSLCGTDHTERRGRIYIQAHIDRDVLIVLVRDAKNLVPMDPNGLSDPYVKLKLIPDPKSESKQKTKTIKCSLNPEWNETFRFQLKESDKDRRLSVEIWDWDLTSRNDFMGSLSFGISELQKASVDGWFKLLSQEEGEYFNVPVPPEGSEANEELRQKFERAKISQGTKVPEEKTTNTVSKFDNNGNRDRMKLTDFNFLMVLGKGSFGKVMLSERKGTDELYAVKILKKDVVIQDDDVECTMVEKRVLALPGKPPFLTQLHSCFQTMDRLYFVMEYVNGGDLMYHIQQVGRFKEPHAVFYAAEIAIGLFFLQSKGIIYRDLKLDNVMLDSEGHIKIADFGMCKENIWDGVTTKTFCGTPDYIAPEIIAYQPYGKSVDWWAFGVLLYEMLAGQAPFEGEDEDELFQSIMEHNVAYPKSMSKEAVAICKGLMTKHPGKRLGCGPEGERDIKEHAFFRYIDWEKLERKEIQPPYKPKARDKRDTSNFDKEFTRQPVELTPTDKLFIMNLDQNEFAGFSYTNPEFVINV

Q: Which results are given for CC1CCCN1C(=O)c1nc(C(=O)NCC(C)(C)O)sc1-c1ccc(C(O)(C(F)(F)F)C(F)(F)F)c(Cl)c1Cl (stereo not shown) [JNJ-61803534]?
A: pIC50 (PPARα): < 5.82; pIC50 (CAR): < 5.82; pIC50 (ERα): < 5.82; pIC50 (ERβ): < 5.82; pIC50 (ERRγ): < 5.00; pIC50 (MR): < 5.82; inhibition at 1 µM (A2A (h)): < 10%; inhibition at 10 µM (A2A (h)): < 10%; inhibition at 1 µM (NT1 (h) (NTS1)): < 10%; inhibition at 10 µM (NT1 (h) (NTS1)): < 10%; inhibition at 1 µM (kappa (KOP)): < 10%; inhibition at 10 µM (kappa (KOP)): < 10%; inhibition at 1 µM (5-HT1B): < 10%; inhibition at 10 µM (5-HT1B): 15.6%; % Inhibition at 1 µM (Na+ channel (site 2); 1 µM): 15%; % Inhibition at 10 µM (Na+ channel (site 2); 10 µM): 46%; inhibition at 1 µM (DA-T transporter (h)): < 10%; inhibition at 10 µM (DA-T transporter (h)): < 10%; EC50 (5HT1A; agonist): > 12.5 µM; IC50 (5HT1A; antagonist): > 12.5 µM; EC50 (5HT6; agonist): > 12.5 µM; IC50 (5HT6; antagonist): > 12.5 µM; EC50 (ADRA2C; agonist): > 12.5 µM; IC50 (ADRA2C; antagonist): > 12.5 µM; EC50 (M1; agonist): > 10 µM; IC50 (M1; antagonist): > 10 µM; activity at 1 µM (Blk(h)): 95%; activity at 10 µM (Blk(h)): 102%; activity at 1 µM (EGFR(h)): 100%; activity at 10 µM (EGFR(h)): 101%; activity at 1 µM (EphA2(h)): 99%; activity at 10 µM (EphA2(h)): 102%; activity at 1 µM (IKKβ(h)): 75%; activity at 10 µM (IKKβ(h)): 138%; activity at 1 µM (JAK2(h)): 109%; activity at 10 µM (JAK2(h)): 105%; activity at 1 µM (MAPK2(h)): 124%; activity at 10 µM (MAPK2(h)): 127%; activity at 1 µM (PKCβI(h)): 97%; activity at 10 µM (PKCβI(h)): 87%; activity at 1 µM (Rsk3(h)): 107%; activity at 10 µM (Rsk3(h)): 104%; activity at 1 µM (SAPK3(h)): 106%; activity at 10 µM (SAPK3(h)): 112%; activity at 1 µM (ZIPK(h)): 113%; activity at 10 µM (ZIPK(h)): 120%; pIC50 (A3): < 4.90; genetic toxicity (TK6): negative; fraction unbound (plasma protein binding): 0.011; pIC50 ([1]; read-out: IC50 (95% confidence intervals), IL-17A production): 7.72; pIC50 ([1]; read-out: IC50 (95% confidence intervals), IL-17F production): 7.66; pIC50 ([1]; read-out: IC50 (95% confidence intervals), IL-22 production): 7.57
